Source: patent publication US20240150339A1, “Compounds and Their Use as PDE4 Activators” (Mironid Limited, priority 2021, published 2024)

System: m-IMCD3 cells
Experiment: Inhibition of PGE2-stimulated in vitro cyst formation in 3D culture of m-IMCD3 cells
Type: cell-based, mouse
Conditions: Mus musculus, mIMCD3, 144 h; 10 μM test compound; mean cyst area (%) compared to 100% for (DMSO + PGE2) and 0% for DMSO control; 100 nM PGE2; 6 days; read-out: % Cyst area after incubation with 10 μM test compound
Protocol: HEK 293 and MDCK cells (Public Health England, Cell Culture Collections) were maintained in Dulbecco's Modified Eagle's Medium (DMEM) supplemented with 10% (v/v) fetal bovine serum (FBS) (Seralab), 2 mM L-glutamine and 100 U/ml penicillin streptomycin cocktail (ThermoFisher); termed complete media. Clonal HEK 293 cell lines were maintained in complete media supplemented with 0.6 mg/mL G418 (Enzo Life Sciences). Mouse inner medullary collecting duct (m-IMCD3) cells [American Type Culture Collection (ATCC)] were maintained in media consisting of DMEM/Hams F-12 50/50 Mix (DMEM F12; Corning) supplemented with penicillin streptomycin cocktail (100 U/ml) and FBS (10% v/v) (DMEM F12-10% FBS).
The mouse Inner Medullary Collecting Duct cell line (m-IMCD3) spontaneously forms cystic spheroids in 3D culture with a Type 1 collagen/Matrigel extracellular matrix. This process can be stimulated with agents which raise intracellular cAMP, such as PGE2, and is used as an in vitro model for the formation of cystic structures in the kidneys of patients with ADPKD.
Rat Collagen I (Fisher Scientific) is prepared on ice by neutralising with 1M NaOH and diluting with a 2×volume of DMEM/F12+10% FBS for coating plate (coating mix) and a 2.2 volume of DMEM/F12+10% FBS for cell plating (plating mix). This is mixed 1:1.1 with ice cold Matrigel (Corning) for coating plates (coating mix), and 1:0.95 with Matrigel for cell plating (plating mix).
The assay is conducted in the wells of a 96-well plate culture dish using a total volume of 130 μl of collagen/Matrigel/DMEM F12-10% FBS suspension in growth media for each matrix plug per individual well. Initially, 30 μl of collagen/Matrigel/DMEM F12-10% FBS (coating mix) is added into the well of a 96 well plate and the collagen is set to a gel by incubating at 37° C. for at least 15 minutes. A second layer of 100 μl collagen/Matrigel suspension (plating mix) containing m-IMCD3 cells (2.75×10^6 m-IMCD3 cells per 96-well plate) is layered over the coating mix and the collagen/Matrigel/cell mix again set to a gel by incubating at 37° C. Cell cultures are maintained at 37° C. in an atmosphere of 5% CO2, 95% air.
Between 18 and 24h after plating, test compound(s) as DMSO stock solutions [0.1% (v/v) final DMSO concentration] and PGE2 (100 nM final concentration) in DMEM F12-10% FBS are added in quadruplicate wells per condition. Media, togetherwith the test compound and PGE2 are replenished after 2 or 3 days. After 6 days of culture z stack images of the wells are captured using the Nikon Eclipse Ti2-E microscope. Nikon General Analysis software is used to measure the following parameters in each well: the mean cyst area, the number of cysts, and the total cyst area.
PDE4 long form activators inhibited in vitro cyst formation in m-IMCD3 cells. Data are shown in FIG. 2 and Table 5 as mean cyst area (%), compared to 100% for (DMSO+PGE2) and 0% for DMSO control.

First: O=C(N[C@H]1CCOc2ccccc21)c1ccc2nc(N3C[C@H]4C[C@@H]3CN4)sc2c1 [Example 78, 2-((1R,4R)-2,5-diazabicyclo[2.2.1]heptan-2-yl)-N-((S)-chroman-4-yl)benzo[d]thiazole-6-carboxamide]
Second: O=C(N[C@H]1CCOc2ccccc21)c1ccc2nc(N3CC4CCC(C3)N4)sc2c1 [Example 121, 2-(3,8-diazabicyclo[3.2.1]octan-3-yl)-N-((S)-chroman-4-yl)benzo[d]thiazole-6-carboxamide]
The activity at 10 µM of the first is higher: 24% for the first, 15% for the second.

Compared with `CCN1CCN(c2nc3ccc(C(=O)NCc4ccc(F)cc4)cc3s2)CC1` [Example 80, 2-(4-ethylpiperazin-1-yl)-N-(4-fluorobenzyl)benzo[d]thiazole-6-carboxamide], `CCN1CCN(c2nc3ccc(C(=O)NC(C)C)cc3s2)CC1` [Example 82, 2-(4-ethylpiperazin-1-yl)-N-isopropylbenzo[d]thiazole-6-carboxamide] is lower in activity at 10 µM: 26% for the first, 6% for the second.

Compared with `CCN1CCN(c2nc3ccc(C(=O)NC4CCCC4)cc3s2)CC1` [Example 81, N-cyclopentyl-2-(4-ethylpiperazin-1-yl)benzo[d]thiazole-6-carboxamide], `CCN1CCN(c2nc3c(C)cc(C(=O)NC4CCOCC4)cc3s2)CC1` [Example 210, 2-(4-ethylpiperazin-1-yl)-4-methyl-N-(tetrahydro-2H-pyran-4-yl)benzo[d]thiazole-6-carboxamide] is lower in activity at 10 µM: 7% for the first, 3% for the second.

Compared with `O=C(N[C@H]1CCOc2c(F)cccc21)c1ccc2nc(N3CCNCC3)sc2c1` [Example 85, (S)-N-(8-fluorochroman-4-yl)-2-(piperazin-1-yl)benzo[d]thiazole-6-carboxamide], `O=C(N[C@@H]1CCOc2cc(F)ccc21)c1ccc2nc(N3CCNCC3)sc2c1` [Example 88, (R)-N-(7-fluorochroman-4-yl)-2-(piperazin-1-yl)benzo[d]thiazole-6-carboxamide] is higher in activity at 10 µM: -12% for the first, 22% for the second.

First: COc1ccc2c(c1)OCC[C@H]2NC(=O)c1ccc2nc(N3CCNCC3)sc2c1 [Example 93, (R)-N-(7-methoxychroman-4-yl)-2-(piperazin-1-yl)benzo[d]thiazole-6-carboxamide]
Second: COc1ccc2c(c1)CC[C@@H]2NC(=O)c1ccc2nc(N3CCNCC3)sc2c1 [Example 108, (S)-N-(5-methoxy-2,3-dihydro-1H-inden-1-yl)-2-(piperazin-1-yl)benzo[d]thiazole-6-carboxamide]
The activity at 10 µM of the first is lower: 9% for the first, 22% for the second.

Compared with `O=C(N[C@H]1CCc2ccccc21)c1ccc2nc(N3CCNCC3)sc2c1` [Example 96, (S)-N-(2,3-dihydro-1H-inden-1-yl)-2-(piperazin-1-yl)benzo[d]thiazole-6-carboxamide], `O=C(N[C@H]1CCc2cccc(F)c21)c1ccc2nc(N3CCNCC3)sc2c1` [Example 98, (S)-N-(7-fluoro-2,3-dihydro-1H-inden-1-yl)-2-(piperazin-1-yl)benzo[d]thiazole-6-carboxamide] is higher in activity at 10 µM: 2% for the first, 27% for the second.

Compared with `O=C(N[C@@H]1CCc2c(F)cccc21)c1ccc2nc(N3CCNCC3)sc2c1` [Example 104, (R)-N-(4-fluoro-2,3-dihydro-1H-inden-1-yl)-2-(piperazin-1-yl)benzo[d]thiazole-6-carboxamide], `COc1ccc2c(c1)[C@H](NC(=O)c1ccc3nc(N4CCNCC4)sc3c1)CC2` [Example 107, (R)-N-(6-methoxy-2,3-dihydro-1H-inden-1-yl)-2-(piperazin-1-yl)benzo[d]thiazole-6-carboxamide] is lower in activity at 10 µM: 30% for the first, 17% for the second.

Going from `O=C(N[C@H]1CCOc2ccccc21)c1ccc2nc(N3CCN(CCO)CC3)sc2c1` [Example 120, (S)-N-(chroman-4-yl)-2-(4-(2-hydroxyethyl)piperazin-1-yl)benzo[d]thiazole-6-carboxamide] to `COCCOCCN1CCC(c2nc3ccc(C(=O)N[C@H]4CCOc5ccccc54)cc3s2)CC1` [Example 175, (S)-N-(chroman-4-yl)-2-(1-(2-(2-methoxyethoxy)ethyl)piperidin-4-yl)benzo[d]thiazole-6-carboxamide], the activity at 10 µM falls from -5% to -14%.

First: O=C(NCc1ccc(F)cc1)c1ccc2nc(C3CCNCC3)sc2c1 [Example 124, N-(4-fluorobenzyl)-2-(piperidin-4-yl)benzo[d]thiazole-6-carboxamide]
Second: O=C(N[C@H]1CCc2ccccc21)c1ccc2nc(C3CCNCC3)sc2c1 [Example 127, (S)-N-(2,3-dihydro-1H-inden-1-yl)-2-(piperidin-4-yl)benzo[d]thiazole-6-carboxamide]
The activity at 10 µM of the first is lower: 11% for the first, 13% for the second.

First: O=C(N[C@@H]1c2ccccc2C[C@H]1O)c1ccc2nc(C3CCNCC3)sc2c1 [Example 128, N-((1R,2R)-2-hydroxy-2,3-dihydro-1H-inden-1-yl)-2-(piperidin-4-yl)benzo[d]thiazole-6-carboxamide]
Second: O=C(N[C@@H]1c2ccccc2C[C@@H]1O)c1ccc2nc(C3CCNCC3)sc2c1 [Example 130, N-((1R,2S)-2-hydroxy-2,3-dihydro-1H-inden-1-yl)-2-(piperidin-4-yl)benzo[d]thiazole-6-carboxamide]
The activity at 10 µM of the first is higher: 3% for the first, -2% for the second.

Compared with `O=C(NC1CCCC1)c1ccc2nc(C3CCNCC3)sc2c1` [Example 134, N-cyclopentyl-2-(piperidin-4-yl)benzo[d]thiazole-6-carboxamide], `O=C(NC1CCOCC1)c1ccc2nc(C3CCNCC3)sc2c1` [Example 138, 2-(piperidin-4-yl)-N-(tetrahydro-2H-pyran-4-yl)benzo[d]thiazole-6-carboxamide] is higher in activity at 10 µM: 16% for the first, 20% for the second.

Going from `CCN1CCC(c2nc3ccc(C(=O)N[C@@H]4c5ccccc5C[C@@H]4O)cc3s2)CC1` [Example 166, 2-(1-ethylpiperidin-4-yl)-N-((1R,2S)-2-hydroxy-2,3-dihydro-1H-inden-1-yl)benzo[d]thiazole-6-carboxamide] to `CCN1CCC(c2nc3ccc(C(=O)N[C@H]4CCc5ccccc54)c(C)c3s2)CC1` [Example 196, (S)-N-(2,3-dihydro-1H-inden-1-yl)-2-(1-ethylpiperidin-4-vy)-7-methylbenzo[d]thiazole-6-carboxamide], the activity at 10 µM rises from -10% to 10%.

First: O=C(NC1CCCC1)c1ccc2nc(C3CCN(CCO)CC3)sc2c1 [Example 171, N-cyclopentyl-2-(1-(2-hydroxyethyl)piperidin-4-yl)benzo[d]thiazole-6-carboxamide]
Second: CCN1CCC(c2nc3ccc(C(=O)NC4CCCC4)c(C)c3s2)CC1 [Example 193, N-cyclopentyl-2-(1-ethylpiperidin-4-yl)-7-methylbenzo[d]thiazole-6-carboxamide]
The activity at 10 µM of the first is higher: 13% for the first, 2% for the second.

Going from `Cc1cc(C(=O)NC2CCCC2)cc2sc(C3CCNCC3)nc12` [Example 181, N-cyclopentyl-4-methyl-2-(piperidin-4-yl)benzo[d]thiazole-6-carboxamide] to `Cc1cc(C(=O)NC2CCCC2)cc2sc(N3CCNCC3)nc12` [Example 206, N-cyclopentyl-4-methyl-2-(piperazin-1-yl)benzo[d]thiazole-6-carboxamide], the activity at 10 µM rises from 13% to 14%.

First: Cc1cc(C(=O)N[C@H]2CCOc3ccccc32)cc2sc(C3CCNCC3)nc12 [Example 186, (S)-N-(chroman-4-yl)-4-methyl-2-(piperidin-4-yl)benzo[d]thiazole-6-carboxamide]
Second: CCN1CCC(c2nc3cc(C)c(C(=O)N[C@H]4CCOc5ccccc54)cc3s2)CC1 [Example 191, (S)-N-(chroman-4-yl)-2-(1-ethylpiperidin-4-yl)-5-methylbenzo[d]thiazole-6-carboxamide]
The activity at 10 µM of the first is higher: 4% for the first, 3% for the second.

First: COc1cc2nc(C3CCNCC3)sc2cc1C(=O)NC1CCOCC1 [Example 200, 5-methoxy-2-(piperidin-4-yl)-N-(tetrahydro-2H-pyran-4-yl)benzo[d]thiazole-6-carboxamide]
Second: Cc1c(C(=O)N[C@H]2CCOc3ccccc32)ccc2nc(N3CCNCC3)sc12 [Example 219, (S)-N-(chroman-4-yl)-7-methyl-2-(piperazin-1-yl)benzo[d]thiazole-6-carboxamide]
The activity at 10 µM of the first is higher: 3% for the first, 2% for the second.

Same assay, conditions: result in words

In the case of `CCN1CCC(c2nc3cc(C)c(C(=O)N[C@H]4CCOc5ccccc54)cc3s2)CC1` [Example 191, (S)-N-(chroman-4-yl)-2-(1-ethylpiperidin-4-yl)-5-methylbenzo[d]thiazole-6-carboxamide], the “Inhibition of PGE2-stimulated cyst formation in 3D culture of m-IMCD3 cells (FIG. 2)” value is reported as “concentration-dependent inhibition”.
